According to ChEMBL document CHEMBL1201862, “PubChem BioAssay data set” (2004):
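Dose response: 5 concentrations. Exposure: 48 h. Format: 96-well plates. Endpoint: linear interpolation; highest concentration if not reached. At the GI50, growth is halved.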 Activity calls are given as the source filed them. No stated cut-off is given here; in the data, active = GI50 up to about 1.1 µM and inactive = higher.

How the values were obtained:
Assay in all cases: NCI tumour cell line growth inhibition, 48 h
[1] = system: CAKI-1
[2] = system: DU-145
[3] = system: HCC 2998
[4] = system: HCT-116
[5] = system: MDA-MB-435
[6] = system: MDA-N
[7] = system: Malme-3M
[8] = system: NCI-H23
[9] = system: NCI-H522
[10] = system: OVCAR-8
[11] = system: PC-3
[12] = system: RXF 393
[13] = system: SF-268
[14] = system: SF-295
[15] = system: SK-MEL-28
[16] = system: SR
[17] = system: UACC-257
[18] = system: HL-60
[19] = system: HOP-62
[20] = system: SNB-75

Measured: GI50

C=C1C(=O)OC2CCN3CC=C(COC(=O)C(C)(O)C4(CO4)C1C)C23 (stereo not drawn)
inactive: [1] > 100 µM | [2] > 100 µM | [3] > 100 µM | [4] > 100 µM | [5] > 100 µM | [6] > 100 µM | [7] > 100 µM | [8] > 100 µM | [9] > 100 µM | [10] > 100 µM | [11] > 100 µM | [12] > 100 µM | [13] > 100 µM | [14] > 100 µM | [15] > 100 µM | [16] > 100 µM | [17] > 100 µM

CC1CC(C)C(C#N)N(C)c2ccccc21 (stereo not drawn)
inactive: [1] > 100 µM | [2] > 100 µM | [3] > 100 µM | [4] 36.5 µM | [18] 26.7 µM | [19] > 100 µM | [5] 69.2 µM | [6] > 100 µM | [7] > 100 µM | [8] > 100 µM | [10] > 100 µM | [11] > 100 µM | [12] 6.12 µM | [13] > 100 µM | [14] > 100 µM | [15] > 100 µM | [20] > 100 µM | [16] 25.6 µM | [17] > 100 µM

COc1ccc(SC(C)(SC)c2ccccn2)c(OC)n1 (stereo not drawn)
inactive: [1] > 100 µM | [2] > 100 µM | [3] > 100 µM | [4] 48.3 µM | [18] 3.24 µM | [19] > 100 µM | [5] > 100 µM | [6] 84.1 µM | [7] 71.1 µM | [8] 35.4 µM | [9] 36.3 µM | [10] 75.7 µM | [11] 76.2 µM | [12] > 100 µM | [13] > 100 µM | [14] 49.2 µM | [15] > 100 µM | [16] 47.2 µM | [17] 67.3 µM

C1CSCCSCCCSC2CCCCC2SC1 (stereo not drawn)
inactive: [2] > 100 µM | [3] > 100 µM | [4] > 100 µM | [18] 17.3 µM | [19] > 100 µM | [5] > 100 µM | [6] > 100 µM | [8] 80.5 µM | [9] > 100 µM | [10] > 100 µM | [11] 68.2 µM | [13] > 100 µM | [14] > 100 µM | [15] > 100 µM | [20] > 100 µM | [16] 46.5 µM | [17] > 100 µM

COC(=O)C1=C(O)C(C(=O)OC)[C@]2(O)[C@H](C(=O)OC)[C@H]1C[C@@H](c1c(Cl)cccc1Cl)[C@H]2C(=O)OC (stereo partly drawn)
inactive: [1] 2.83 µM | [2] 2.68 µM | [3] 1.66 µM | [4] 1.97 µM | [18] 5.81 µM | [19] 3.07 µM | [5] 1.33 µM | [6] 1.37 µM | [7] 2.07 µM | [8] 2.02 µM | [10] 1.79 µM | [11] 1.99 µM | [12] 1.75 µM | [13] 3.13 µM | [14] 2.67 µM | [15] 2.24 µM | [20] 2.23 µM | [16] 1.82 µM | [17] 2.08 µM

C=CCCCCCCCCCOC1C=CC(OC(C)=O)C(COC(C)=O)O1 (stereo not drawn)
inactive: [1] 80.5 µM | [2] > 100 µM | [3] 39.8 µM | [4] 53.2 µM | [18] 24.2 µM | [19] 83.8 µM | [5] 50.8 µM | [6] 44.3 µM | [7] 35.2 µM | [8] 32.1 µM | [9] 26.5 µM | [10] 18.1 µM | [11] 32 µM | [12] > 100 µM | [13] 37.3 µM | [14] 72.9 µM | [15] > 100 µM | [16] 32.7 µM | [17] 29 µM

OCCCSCCO
inactive: [1] > 100 µM | [2] > 100 µM | [3] > 100 µM | [4] > 100 µM | [18] > 100 µM | [19] > 100 µM | [5] > 100 µM | [6] > 100 µM | [7] > 100 µM | [8] > 100 µM | [9] > 100 µM | [10] > 100 µM | [11] > 100 µM | [13] > 100 µM | [14] > 100 µM | [15] > 100 µM | [20] > 100 µM | [16] > 100 µM | [17] > 100 µM

COc1ccc(OC)c(-c2nc(O)c3ccccc3n2)c1
inactive: [1] > 100 µM | [2] > 100 µM | [3] > 100 µM | [4] > 100 µM | [19] > 100 µM | [5] > 100 µM | [6] > 100 µM | [7] > 100 µM | [8] > 100 µM | [10] > 100 µM | [11] > 100 µM | [12] 15 µM | [13] > 100 µM | [14] > 100 µM | [20] > 100 µM | [16] 67 µM | [17] > 100 µM

CC(C)(C)c1ccccc1N1C(=O)c2ccc3c4c(ccc(c24)C1=O)N(c1ccccc1C(C)(C)C)C3=O
inactive: [1] > 100 µM | [2] > 100 µM | [3] > 100 µM | [4] > 100 µM | [19] > 100 µM | [5] > 100 µM | [6] > 100 µM | [8] > 100 µM | [9] 5.07 µM | [10] > 100 µM | [11] 20 µM | [12] > 100 µM | [13] > 100 µM | [14] 71.3 µM | [15] > 100 µM | [16] > 100 µM | [17] > 100 µM

O=C(NCCC1CNc2ccccc21)OCc1ccccc1 (stereo not drawn)
inactive: [1] > 100 µM | [2] > 100 µM | [3] > 100 µM | [4] > 100 µM | [19] > 100 µM | [5] > 100 µM | [6] > 100 µM | [7] > 100 µM | [8] > 100 µM | [9] > 100 µM | [10] > 100 µM | [11] > 100 µM | [12] > 100 µM | [13] > 100 µM | [14] > 100 µM | [15] > 100 µM | [16] > 100 µM | [17] > 100 µM

COc1ccc(N(C(=O)Nc2ccc(Cl)c(Cl)c2)C2c3cccn3C(=O)N2c2ccc(Cl)c(Cl)c2)cc1 (stereo not drawn)
inactive: [1] 26.9 µM | [2] > 100 µM | [3] 56.5 µM | [4] 17.3 µM | [18] 25.1 µM | [5] 28.6 µM | [6] 87.7 µM | [7] > 100 µM | [8] 92 µM | [10] > 100 µM | [11] 60.4 µM | [12] > 100 µM | [13] 8.43 µM | [14] 18.3 µM | [15] > 100 µM | [16] 12.4 µM | [17] > 100 µM
